Source: publication PMC12864978, “Covalent modification of a glutamic acid inspired by HaloTag technology” (Nature Communications, 2026)

Assays:
Experiment in all cases: In-lysate thermal proteome profiling (TPP)
[1] = target: Jurkat cell lysate proteome (Homo sapiens, UniProt O75044)
Description: (§1) Jurkat cells were grown to a density of 1.0–2.5 × 10⁶ cells/ml. A 100 ml aliquot of the suspension was divided equally into two Falcon tubes and chilled on ice for 2 min. Cells were pelleted by centrifugation at 350×g for 3 min at room temperature. After discarding the supernatant, the combined pellet was resuspended in 25 ml of ice-cold PBS buffer. The washing step—centrifugation at 350×g for 2 min at room temperature, followed by supernatant removal—was further repeated twice. Following the final wash, the cell pellet was resuspended in 1.5 ml of PBS containing 0.4% (v/v) NP40 alternative and flash-frozen in liquid nitrogen. […] The resulting lysate was separated by ultracentrifugation at 100,000×g for 20 min at 4 °C (Beckman Coulter Optima MAX-XP, MLA-80 rotor). The supernatant was carefully collected, snap-frozen in liquid nitrogen, and stored at −80 °C for subsequent analysis.
(§2) Protein concentration was quantified using the Bradford protein assay. […] Following incubation, each aliquot was further subdivided into nine 120 µl portions in PCR tubes. […] For analysis, 75 µl of each supernatant was allocated for mass spectrometry-based thermal protein profiling (TPP), while the remaining 25 µl was used for immunoblotting to assess PDEδ levels.
(§3) For mass spectrometric analysis, sample processing was further proceeded with reduction and alkylation, followed by acetone precipitation and tryptic digestion. Each digested aliquot was then labelled with isobaric TMT reagents (Thermo Fisher Scientific, A52047) corresponding to its specific temperature condition from the thermal shift assay.
(§4) Proteins were considered as stabilised or destabilised when, in all three replicates,
(§5) tailed p-values were determined by applying paired t-test comparing AUC of melting curves
(§6) between DMSO-treated and compound-treated conditions, OR
(§7) least ± 10 % (same direction) compared to the DMSO control.

[2] = target: T1, Jurkat cell lysate proteome (Homo sapiens, UniProt O95628)
T1 sequence (O95628 1-575): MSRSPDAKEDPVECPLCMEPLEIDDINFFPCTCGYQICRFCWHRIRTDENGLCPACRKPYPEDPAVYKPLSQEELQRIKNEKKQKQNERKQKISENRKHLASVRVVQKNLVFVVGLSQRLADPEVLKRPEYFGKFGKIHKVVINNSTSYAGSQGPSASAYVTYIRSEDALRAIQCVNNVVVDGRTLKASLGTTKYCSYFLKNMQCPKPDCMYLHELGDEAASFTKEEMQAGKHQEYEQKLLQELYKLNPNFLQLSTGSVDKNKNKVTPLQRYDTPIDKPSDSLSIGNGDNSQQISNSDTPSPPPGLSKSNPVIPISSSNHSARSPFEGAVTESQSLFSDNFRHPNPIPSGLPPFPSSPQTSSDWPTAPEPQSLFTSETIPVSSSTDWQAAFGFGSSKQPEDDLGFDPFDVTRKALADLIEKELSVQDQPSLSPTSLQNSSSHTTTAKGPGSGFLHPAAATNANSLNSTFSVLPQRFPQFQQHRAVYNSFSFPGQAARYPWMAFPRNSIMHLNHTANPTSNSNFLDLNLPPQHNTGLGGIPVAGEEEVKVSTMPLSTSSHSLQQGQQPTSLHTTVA
Description: as §1, §2, §3, §4, §5, §6, §7

[3] = target: Jurkat cell lysate proteome (Homo sapiens, UniProt P07195)
Chain of Jurkat cell lysate proteome (Homo sapiens, UniProt P07195) (P07195 whole entry): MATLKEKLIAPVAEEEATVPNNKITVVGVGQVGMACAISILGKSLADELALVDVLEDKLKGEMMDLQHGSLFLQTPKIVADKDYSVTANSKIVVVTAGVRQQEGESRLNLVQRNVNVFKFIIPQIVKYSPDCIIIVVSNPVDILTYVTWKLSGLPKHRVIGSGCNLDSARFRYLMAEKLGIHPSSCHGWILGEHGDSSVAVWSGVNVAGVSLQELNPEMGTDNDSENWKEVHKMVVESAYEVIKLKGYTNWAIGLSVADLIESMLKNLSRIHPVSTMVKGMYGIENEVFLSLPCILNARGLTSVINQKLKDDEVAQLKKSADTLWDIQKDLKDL
Description: as §1, §2, §3, §4, §5, §6, §7

[4] = target: T2, Jurkat cell lysate proteome (Homo sapiens, UniProt P24666)
T2 sequence (P24666 1-158): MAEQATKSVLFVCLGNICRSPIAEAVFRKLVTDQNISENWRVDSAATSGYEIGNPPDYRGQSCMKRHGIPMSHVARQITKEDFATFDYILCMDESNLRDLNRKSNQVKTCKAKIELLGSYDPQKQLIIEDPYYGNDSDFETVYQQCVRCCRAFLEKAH
Description: as §1, §2, §3, §4, §5, §6, §7

[5] = target: Jurkat cell lysate proteome (Homo sapiens, UniProt P36404)
Chain of Jurkat cell lysate proteome (Homo sapiens, UniProt P36404) (P36404 whole entry): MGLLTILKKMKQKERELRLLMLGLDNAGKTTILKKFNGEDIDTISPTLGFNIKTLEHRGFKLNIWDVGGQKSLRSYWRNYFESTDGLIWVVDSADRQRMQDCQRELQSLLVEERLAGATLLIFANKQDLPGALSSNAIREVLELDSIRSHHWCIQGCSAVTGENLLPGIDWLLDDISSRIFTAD
Description: as §1, §2, §3, §4, §5, §6, §7

[6] = target: Jurkat cell lysate proteome (Homo sapiens, UniProt P49773)
Chain of Jurkat cell lysate proteome (Homo sapiens, UniProt P49773) (P49773 whole entry): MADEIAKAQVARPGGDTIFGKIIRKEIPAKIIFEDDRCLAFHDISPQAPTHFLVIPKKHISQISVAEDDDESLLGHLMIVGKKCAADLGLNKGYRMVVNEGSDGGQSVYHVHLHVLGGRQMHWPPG
Description: as §1, §2, §3, §4, §5, §6, §7

[7] = target: Jurkat cell lysate proteome (Homo sapiens, UniProt P56134)
Chain of Jurkat cell lysate proteome (Homo sapiens, UniProt P56134) (P56134 whole entry): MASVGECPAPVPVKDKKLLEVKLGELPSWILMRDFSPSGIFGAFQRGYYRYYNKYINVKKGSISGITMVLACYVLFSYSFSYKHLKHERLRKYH
Description: as §1, §2, §3, §4, §5, §6, §7

[8] = target: Jurkat cell lysate proteome (Homo sapiens, UniProt P62318)
Chain of Jurkat cell lysate proteome (Homo sapiens, UniProt P62318) (P62318 whole entry): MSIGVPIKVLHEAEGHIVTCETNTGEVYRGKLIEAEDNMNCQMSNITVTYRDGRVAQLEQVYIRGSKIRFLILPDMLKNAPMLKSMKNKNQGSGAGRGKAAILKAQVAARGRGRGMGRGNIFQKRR
Description: as §1, §2, §3, §4, §5, §6, §7

[9] = target: Jurkat cell lysate proteome (Homo sapiens, UniProt P62899)
Description: as §1, §2, §3, §4, §5, §6, §7

[10] = target: Jurkat cell lysate proteome (Homo sapiens, UniProt Q14108)
Chain of Jurkat cell lysate proteome (Homo sapiens, UniProt Q14108) (Q14108 whole entry): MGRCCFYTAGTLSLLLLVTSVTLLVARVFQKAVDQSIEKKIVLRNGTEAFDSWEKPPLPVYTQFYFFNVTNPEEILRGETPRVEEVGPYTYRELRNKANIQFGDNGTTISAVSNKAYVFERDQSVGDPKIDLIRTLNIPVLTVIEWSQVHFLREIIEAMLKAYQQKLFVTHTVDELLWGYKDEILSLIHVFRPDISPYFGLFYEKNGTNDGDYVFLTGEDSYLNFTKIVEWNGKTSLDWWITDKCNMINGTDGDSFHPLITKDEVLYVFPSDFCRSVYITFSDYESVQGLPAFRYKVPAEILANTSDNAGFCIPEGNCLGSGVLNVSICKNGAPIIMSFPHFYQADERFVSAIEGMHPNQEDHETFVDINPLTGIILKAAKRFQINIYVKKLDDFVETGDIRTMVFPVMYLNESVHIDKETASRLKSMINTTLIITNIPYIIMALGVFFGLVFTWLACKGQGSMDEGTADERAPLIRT
Description: as §1, §2, §3, §4, §5, §6, §7

[11] = target: Jurkat cell lysate proteome (Homo sapiens, UniProt Q15382); settings: 10 µM, 15 min
Chain of Jurkat cell lysate proteome (Homo sapiens, UniProt Q15382) (Q15382 whole entry): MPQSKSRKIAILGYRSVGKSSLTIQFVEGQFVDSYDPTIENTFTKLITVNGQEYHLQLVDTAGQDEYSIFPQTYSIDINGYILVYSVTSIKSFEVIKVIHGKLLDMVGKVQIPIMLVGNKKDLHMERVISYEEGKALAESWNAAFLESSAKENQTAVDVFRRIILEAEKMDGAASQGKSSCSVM
Description: as §1, §2, §3, §4, §5, §6, §7

[12] = target: T3, Jurkat cell lysate proteome (Homo sapiens, UniProt Q16854)
T3 sequence (Q16854 40-277): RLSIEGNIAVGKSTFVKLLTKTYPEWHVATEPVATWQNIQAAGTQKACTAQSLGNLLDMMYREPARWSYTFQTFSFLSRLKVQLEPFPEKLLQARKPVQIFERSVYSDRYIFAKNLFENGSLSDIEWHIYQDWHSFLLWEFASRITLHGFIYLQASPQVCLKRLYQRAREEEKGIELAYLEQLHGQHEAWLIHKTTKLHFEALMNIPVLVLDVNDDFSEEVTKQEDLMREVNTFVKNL
Description: as §1, §2, §3, §4, §5, §6, §7

[13] = target: T4, Jurkat cell lysate proteome (Homo sapiens, UniProt Q9H2H9)
T4 sequence (Q9H2H9 1-487): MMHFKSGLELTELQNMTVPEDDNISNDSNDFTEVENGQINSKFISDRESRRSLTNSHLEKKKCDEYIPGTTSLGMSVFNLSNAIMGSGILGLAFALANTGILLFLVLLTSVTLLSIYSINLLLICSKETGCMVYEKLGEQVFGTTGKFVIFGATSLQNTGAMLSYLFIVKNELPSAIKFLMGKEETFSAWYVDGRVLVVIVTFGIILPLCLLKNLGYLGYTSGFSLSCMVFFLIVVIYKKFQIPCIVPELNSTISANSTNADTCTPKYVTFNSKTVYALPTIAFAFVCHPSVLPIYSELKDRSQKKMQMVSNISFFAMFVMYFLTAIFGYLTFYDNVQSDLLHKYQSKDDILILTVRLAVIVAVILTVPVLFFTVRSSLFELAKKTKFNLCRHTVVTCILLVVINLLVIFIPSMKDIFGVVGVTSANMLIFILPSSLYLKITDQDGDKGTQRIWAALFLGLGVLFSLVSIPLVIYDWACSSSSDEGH
Description: as §1, §2, §3, §4, §5, §6, §7

[14] = target: Jurkat cell lysate proteome (Homo sapiens, UniProt Q9H583)
Chain of Jurkat cell lysate proteome (Homo sapiens, UniProt Q9H583) (Q9H583 whole entry): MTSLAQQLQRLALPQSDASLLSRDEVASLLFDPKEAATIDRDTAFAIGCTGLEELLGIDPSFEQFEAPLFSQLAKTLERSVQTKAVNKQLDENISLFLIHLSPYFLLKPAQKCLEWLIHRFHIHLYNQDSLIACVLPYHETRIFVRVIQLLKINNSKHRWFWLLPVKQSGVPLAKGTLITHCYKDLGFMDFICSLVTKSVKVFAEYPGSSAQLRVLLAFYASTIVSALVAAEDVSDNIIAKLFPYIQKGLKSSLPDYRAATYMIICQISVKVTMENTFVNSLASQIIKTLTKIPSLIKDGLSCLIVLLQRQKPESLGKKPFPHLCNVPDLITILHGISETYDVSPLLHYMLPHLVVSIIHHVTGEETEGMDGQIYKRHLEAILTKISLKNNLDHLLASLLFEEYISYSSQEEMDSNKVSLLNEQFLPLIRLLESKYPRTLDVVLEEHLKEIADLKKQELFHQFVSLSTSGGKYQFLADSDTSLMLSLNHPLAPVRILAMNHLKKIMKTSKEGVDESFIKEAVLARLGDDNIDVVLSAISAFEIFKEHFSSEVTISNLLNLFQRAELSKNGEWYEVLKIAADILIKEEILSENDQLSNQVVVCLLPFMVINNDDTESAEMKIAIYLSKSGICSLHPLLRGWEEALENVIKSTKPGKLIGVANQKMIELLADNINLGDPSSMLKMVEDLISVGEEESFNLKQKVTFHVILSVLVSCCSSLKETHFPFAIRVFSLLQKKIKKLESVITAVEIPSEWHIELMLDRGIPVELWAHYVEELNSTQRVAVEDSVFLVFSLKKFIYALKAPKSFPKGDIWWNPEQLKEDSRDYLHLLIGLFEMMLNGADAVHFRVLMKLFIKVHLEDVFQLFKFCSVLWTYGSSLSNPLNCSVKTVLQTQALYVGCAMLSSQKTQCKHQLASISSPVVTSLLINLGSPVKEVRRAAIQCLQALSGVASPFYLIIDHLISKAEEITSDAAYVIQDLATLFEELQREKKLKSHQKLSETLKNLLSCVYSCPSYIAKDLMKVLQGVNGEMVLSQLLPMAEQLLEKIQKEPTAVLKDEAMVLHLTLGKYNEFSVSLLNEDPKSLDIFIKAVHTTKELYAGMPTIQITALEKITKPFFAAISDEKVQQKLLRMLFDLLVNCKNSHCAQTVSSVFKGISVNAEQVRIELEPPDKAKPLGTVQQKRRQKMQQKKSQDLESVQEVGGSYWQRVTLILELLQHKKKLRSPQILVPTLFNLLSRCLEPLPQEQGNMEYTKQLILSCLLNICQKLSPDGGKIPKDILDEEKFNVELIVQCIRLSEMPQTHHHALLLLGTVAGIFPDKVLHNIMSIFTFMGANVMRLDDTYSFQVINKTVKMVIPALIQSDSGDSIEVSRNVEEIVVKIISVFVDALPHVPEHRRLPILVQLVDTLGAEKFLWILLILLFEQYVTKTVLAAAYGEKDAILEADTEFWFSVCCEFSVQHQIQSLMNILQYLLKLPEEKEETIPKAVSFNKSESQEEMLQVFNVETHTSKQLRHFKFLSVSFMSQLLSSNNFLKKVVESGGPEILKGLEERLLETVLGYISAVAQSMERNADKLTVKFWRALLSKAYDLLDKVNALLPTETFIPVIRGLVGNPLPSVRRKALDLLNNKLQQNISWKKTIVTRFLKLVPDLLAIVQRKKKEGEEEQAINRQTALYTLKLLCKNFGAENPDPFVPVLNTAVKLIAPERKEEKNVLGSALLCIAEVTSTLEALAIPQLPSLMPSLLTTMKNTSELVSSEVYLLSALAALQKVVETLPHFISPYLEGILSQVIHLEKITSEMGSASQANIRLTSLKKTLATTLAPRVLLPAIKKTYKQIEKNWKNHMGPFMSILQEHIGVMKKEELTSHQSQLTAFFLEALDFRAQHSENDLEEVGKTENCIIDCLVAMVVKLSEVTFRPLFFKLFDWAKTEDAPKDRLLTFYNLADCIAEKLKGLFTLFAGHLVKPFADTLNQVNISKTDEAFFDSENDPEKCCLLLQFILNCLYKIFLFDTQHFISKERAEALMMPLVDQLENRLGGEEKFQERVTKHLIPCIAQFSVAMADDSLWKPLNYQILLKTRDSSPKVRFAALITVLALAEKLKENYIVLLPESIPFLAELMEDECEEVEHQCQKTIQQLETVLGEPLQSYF
Description: as §1, §2, §3, §4, §5, §6, §7

[15] = target: Jurkat cell lysate proteome (Homo sapiens, UniProt Q9UHA4)
Chain of Jurkat cell lysate proteome (Homo sapiens, UniProt Q9UHA4) (Q9UHA4 whole entry): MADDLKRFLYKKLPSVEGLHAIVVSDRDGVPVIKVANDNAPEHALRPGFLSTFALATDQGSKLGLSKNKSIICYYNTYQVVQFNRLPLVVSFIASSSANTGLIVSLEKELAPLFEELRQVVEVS
Description: as §1, §2, §3, §4, §5, §6, §7

[16] = 10 µM, 15 min, listed as DeltaTag

Cc1ccc(-n2nc3c(=O)n(CCCCS(=O)(=O)N(CCc4cccc(CCBr)c4)CC4CCNCC4)nc(C)c3c2C)cc1 [6a]
ΔAUC SRGAP2 ([1]; 10 µM, 15 min): -2.5 | ΔI67°C SRGAP2 ([1]; 10 µM, 15 min): -10 ± 7% | ΔAUC SRGAP2 [1, 16]: −2.5 | ΔTm at 10 µM ([1]; read-out: ΔTm SRGAP2, 10 µM, 15 min): -1.3 ± 1.1 °C | ΔAUC CNOT4 ([2]; 10 µM, 15 min): -1.7 | ΔI67°C CNOT4 ([2]; 10 µM, 15 min): 0 ± 3% | ΔTm at 10 µM ([2]; read-out: ΔTm CNOT4, 10 µM, 15 min): -2.7 ± 1 °C | ΔAUC LDHB ([3]; 10 µM, 15 min): -1.8 | ΔI67°C LDHB ([3]; 10 µM, 15 min): -1 ± 4% | ΔTm at 10 µM ([3]; read-out: ΔTm LDHB, 10 µM, 15 min): -2.9 ± 0.7 °C | ΔAUC ACP1 ([4]; 10 µM, 15 min): 2.1 | ΔI67°C ACP1 ([4]; 10 µM, 15 min): 0 ± 4% | ΔTm at 10 µM ([4]; read-out: ΔTm ACP1, 10 µM, 15 min): 2.3 ± 0.3 °C | ΔAUC Arl2 ([5]; 10 µM, 15 min): 0.97 | ΔTm at 10 µM ([5]; read-out: ΔTm Arl2, 10 µM, 15 min): -0.92 °C | ΔAUC HINT1 ([6]; 10 µM, 15 min): 3.6 | ΔI67°C HINT1 ([6]; 10 µM, 15 min): 3 ± 6% | ΔTm at 10 µM ([6]; read-out: ΔTm HINT1, 10 µM, 15 min): 4 ± 1.4 °C | ΔI67°C ATP5J2 ([7]; 10 µM, 15 min): 1 ± 1% | ΔTm at 10 µM ([7]; read-out: ΔTm ATP5J2, 10 µM, 15 min): -2 ± 1 °C | ΔAUC SNRPD3 ([8]; 10 µM, 15 min): -2 | ΔI67°C SNRPD3 ([8]; 10 µM, 15 min): -9 ± 11% | ΔTm at 10 µM ([8]; read-out: ΔTm SNRPD3, 10 µM, 15 min): 0.8 ± 0.7 °C | ΔAUC RPL31 ([9]; 10 µM, 15 min): -2.5 | ΔI67°C RPL31 ([9]; 10 µM, 15 min): -6 ± 5% | ΔTm at 10 µM ([9]; read-out: ΔTm RPL31, 10 µM, 15 min): -2.1 ± 0.6 °C | ΔI67°C SCARB2 ([10]; 10 µM, 15 min): -14 ± 4% | ΔTm at 10 µM ([10]; read-out: ΔTm SCARB2, 10 µM, 15 min): 0.7 ± 2.1 °C | ΔAUC RHEB [11]: -1.5 | ΔI67°C RHEB [11]: -6 ± 8% | ΔTm RHEB [11]: -0.9 ± 0.8 °C | ΔAUC RHEB ([11]; listed as DeltaTag): −1.5 | ΔTm RHEB ([11]; listed as DeltaTag): −0.89 °C | ΔAUC DGUOK ([12]; 10 µM, 15 min): -2.3 | ΔI67°C DGUOK ([12]; 10 µM, 15 min): 0 ± 2% | ΔTm at 10 µM ([12]; read-out: ΔTm DGUOK, 10 µM, 15 min): -2.9 ± 1.9 °C | ΔAUC SLC38A1 ([13]; 10 µM, 15 min): -3.3 | ΔI67°C SLC38A1 ([13]; 10 µM, 15 min): -13 ± 5% | ΔTm at 10 µM ([13]; read-out: ΔTm SLC38A1, 10 µM, 15 min): -3.1 ± 0.5 °C | ΔAUC HEATR1 ([14]; 10 µM, 15 min): -2.9 | ΔI67°C HEATR1 ([14]; 10 µM, 15 min): -8 ± 6% | ΔTm at 10 µM ([14]; read-out: ΔTm HEATR1, 10 µM, 15 min): -2.8 ± 1.1 °C | ΔAUC LAMTOR3 ([15]; 10 µM, 15 min): -2.1 | ΔI67°C LAMTOR3 ([15]; 10 µM, 15 min): -3 ± 2% | ΔAUC LAMTOR3 [15, 16]: −2.1 | ΔTm at 10 µM ([15]; read-out: ΔTm LAMTOR3, 10 µM, 15 min): -2.6 ± 1.4 °C
